What follows are compounds tested against T1, GPR17 (Homo sapiens, UniProt Q13304) (assay: cAMP accumulation functional assay (HTRF) in CHO hGPR17 cells). Details: Schild analysis against MDL29,951, 5 μM forskolin, activity range, read-out: cAMP assay pA2 (converted).
Type: cell-based
Set-up: host or cells: Flp-In T-REx CHO cells, expression induced with doxycycline
Experimental: (§1) Flp-In T-REx CHO cells stably expressing human GPR17 receptor (CHO hGPR17) from Evi Kostenis' lab (Bonn University, Germany) were cultured at 37° C. in a humidified atmosphere of 5% CO2. Cells were grown in DMEM with Nutrient Mixture F-12 supplemented with hygromycin B (500 μg/ml) and blasticidin (30 μg/ml). Expression from the Flp-In locus was induced by treatment with doxycycline (1 μg/ml) for 16-20 h prior assays.
GPR17 activation can also recruit Gi-type G-protein signaling, resulting in a decrease of intracellular cyclic adenosine monophosphate (cAMP). Intracellular cAMP changes can be measured using the HTRF cAMP dynamic assay kit from CisBio (Codolet, France). Using homogenous time-resolved fluorescence technology (HTRF), the assay is based on competition between native cAMP produced by cells and cAMP labelled with the dye d2. The tracer binding was determined by an anti-cAMP antibody labeled with cryptate.
CHO hGPR17 were detached with PBS containing EDTA and dispatched in black 384-well plates with 5,000 cells per well. Cells were first incubated for 30 minutes at room temperature in HBSS Hepes (pH 7.4) containing vehicle or varying concentrations of test GPR17 antagonist/inverse agonist compounds. Then, a dose response curve of MDL29,951 GPR17 agonist (typically from 10^−5M to 10^−10M) was added on vehicle and on each test GPR17 antagonist/inverse agonist compound concentration in a final volume of 20 μL HBSS Hepes buffer (pH 7.4) containing 1% DMSO, 5 μM forskolin and 0.1 mM IBMX. After 60 minutes incubation at room temperature, the reaction is terminated and the cells lysed by adding the d2 detection reagent and the cryptate reagent in 10 μL lysis buffer each according to manufacturer's instructions. After 60 minutes incubation, changes in cAMP concentrations are measured according to manufacturer's instructions using an Envision plate reader with laser excitation. All incubations were performed in duplicate. Data was analyzed using GraphPad Prism software using the 4-parameter logistic equation to measure MDL29,951 pEC50s in absence and presence of GPR17 antagonist/inverse agonist test compounds. Dose ratio (DR) were plotted against antagonist concentrations and Schild analysis provided estimated affinity pA2 of GPR17 antagonist/inverse agonist test compounds.
The activities of the Example compounds tested are depicted in the table below. The activity ranges A, B and C refer to pA2 values in the cAMP assay as follows: “A”: pA2 6.5≤x<7.5, “B”: pA2 7.5≤x<8.5, “C”: 8.5≤pA2.

T1 sequence (Q13304 29-367 limits assumed): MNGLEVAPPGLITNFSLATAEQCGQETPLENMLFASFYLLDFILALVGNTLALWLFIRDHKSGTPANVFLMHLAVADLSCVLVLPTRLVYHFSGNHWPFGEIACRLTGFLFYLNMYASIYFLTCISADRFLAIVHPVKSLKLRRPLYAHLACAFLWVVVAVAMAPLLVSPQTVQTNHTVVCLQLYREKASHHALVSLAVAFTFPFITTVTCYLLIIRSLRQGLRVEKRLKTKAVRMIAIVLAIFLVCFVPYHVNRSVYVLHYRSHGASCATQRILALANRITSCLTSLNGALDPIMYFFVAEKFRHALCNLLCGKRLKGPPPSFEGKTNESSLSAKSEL

`COc1ccc(NS(=O)(=O)c2c[nH]c3cc(Cl)ccc23)cn1` [Example I-15, 6-chloro-N-(6-methoxypyridin-3-yl)-1H-indole-3-sulfonamide] was tested. Which Kb did it give?
Its Kb is 0.0316 to 0.316 µM.

How did the Kb turn out when `Cc1nc(F)c(NS(=O)(=O)c2c[nH]c3cc(Cl)ccc23)cc1F` [Example I-7, 6-chloro-N-(2,5-difluoro-6-methylpyridin-3-yl)-1H-indole-3-sulfonamide] was run?
The Kb was 0.00316 to 0.0316 µM.

Which Kb does the source give for `COc1nc(Cl)c(F)cc1NS(=O)(=O)c1c[nH]c2cc(Cl)ccc12` [Example I-3, 6-chloro-N-(6-chloro-5-fluoro-2-methoxypyridin-3-yl)-1H-indole-3-sulfonamide] here?
The Kb was ≤ 0.00316 µM.

Which Kb does the source give for `COc1nc(Cl)ccc1NS(=O)(=O)c1c[nH]c2nc(C(F)F)ccc12` [Example I-28, N-(6-chloro-2-methoxypyridin-3-yl)-6-(difluoromethyl)-1H-pyrrolo[2,3-b]pyridine-3-sulfonamide] here?
Its Kb is 0.0316 to 0.316 µM.

How did the Kb turn out when `COc1ccc2c(S(=O)(=O)Nc3cc(F)c(OCC(F)F)nc3OC)c[nH]c2c1` [Example I-64, N-[6-(2,2-difluoroethoxy)-5-fluoro-2-methoxypyridin-3-yl]-6-methoxy-1H-indole-3-sulfonamide] was run?
Its Kb is ≤ 0.00316 µM.

Which Kb does the source give for `COc1nc(OCCOC(F)F)c(F)cc1NS(=O)(=O)c1c[nH]c2nc(C(F)F)ccc12` [Example I-58, N-[6-[2-(difluoromethoxy)ethoxy]-5-fluoro-2-methoxypyridin-3-yl]-6-(difluoromethyl)-1H-pyrrolo[2,3-b]pyridine-3-sulfonamide] here?
The Kb was ≤ 0.00316 µM.

How did the Kb turn out when `COc1nc(OCC(F)F)c(F)cc1NS(=O)(=O)c1c[nH]c2cc(C(F)F)ccc12` [Example I-62, N-[6-(2,2-difluoroethoxy)-5-fluoro-2-methoxypyridin-3-yl]-6-(difluoromethyl)-1H-indole-3-sulfonamide] was run?
The Kb was ≤ 0.00316 µM.

Which Kb does the source give for `COc1nc(OC(F)F)c(F)cc1NS(=O)(=O)c1c[nH]c2cc(C)ccc12` [Example I-60, N-[6-(difluoromethoxy)-5-fluoro-2-methoxypyridin-3-yl]-6-methyl-1H-indole-3-sulfonamide] here?
The Kb was ≤ 0.00316 µM.

`COc1nc(C2CC2)c(F)cc1NS(=O)(=O)c1c[nH]c2cc(Cl)ccc12` [Example I-50, 6-chloro-N-(6-cyclopropyl-5-fluoro-2-methoxypyridin-3-yl)-1H-indole-3-sulfonamide] was tested. Which Kb did it give?
The Kb was ≤ 0.00316 µM.

`COc1nc(OCC(F)F)c(F)cc1NS(=O)(=O)c1c[nH]c2nc(Cl)c(Br)cc12` [Example I-71, 5-bromo-6-chloro-N-[6-(2,2-difluoroethoxy)-5-fluoro-2-methoxypyridin-3-yl]-1H-pyrrolo[2,3-b]pyridine-3-sulfonamide] was tested. Which Kb did it give?
Its Kb is ≤ 0.00316 µM.

With `COc1nc(OCCF)c(F)cc1NS(=O)(=O)c1c[nH]c2nc(Cl)ccc12` [Example I-36, 6-chloro-N-[5-fluoro-6-(2-fluoroethoxy)-2-methoxypyridin-3-yl]-1H-pyrrolo[2,3-b]pyridine-3-sulfonamide] as the compound, how does the Kb read?
The Kb was ≤ 0.00316 µM.

Which Kb does the source give for `COc1nc(OCCOC(F)F)c(F)cc1NS(=O)(=O)c1c[nH]c2nc(Cl)ccc12` [Example I-48, 6-chloro-N-[6-[2-(difluoromethoxy)ethoxy]-5-fluoro-2-methoxypyridin-3-yl]-1H-pyrrolo[2,3-b]pyridine-3-sulfonamide] here?
The Kb was ≤ 0.00316 µM.

For `COc1nc(OC(F)F)c(F)cc1NS(=O)(=O)c1c[nH]c2cc(C(F)F)ccc12` [Example I-16, N-[6-(difluoromethoxy)-5-fluoro-2-methoxypyridin-3-yl]-6-(difluoromethyl)-1H-indole-3-sulfonamide], which Kb is on record?
The Kb was ≤ 0.00316 µM.

For `COc1ccc(NS(=O)(=O)c2c[nH]c3cc(Cl)ccc23)c(OCC(F)F)n1` [Example I-39, 6-chloro-N-[2-(2,2-difluoroethoxy)-6-methoxypyridin-3-yl]-1H-indole-3-sulfonamide], which Kb is on record?
The Kb was 0.00316 to 0.0316 µM.

`COc1nc(Cl)c(F)cc1NS(=O)(=O)c1c[nH]c2nc(OCc3ccccc3)ccc12` [Example I-72, N-(6-chloro-5-fluoro-2-methoxypyridin-3-yl)-6-phenylmethoxy-1H-pyrrolo[2,3-b]pyridine-3-sulfonamide] was tested. Which Kb did it give?
The Kb was 0.0316 to 0.316 µM.

How did the Kb turn out when `COc1nc(OCC(F)F)c(F)cc1NS(=O)(=O)c1c[nH]c2cc(OC(F)F)ccc12` [Example I-51, N-[6-(2,2-difluoroethoxy)-5-fluoro-2-methoxypyridin-3-yl]-6-(difluoromethoxy)-1H-indole-3-sulfonamide] was run?
Its Kb is ≤ 0.00316 µM.

For `O=S(=O)(Nc1cc(F)c(OCC(F)F)nc1F)c1c[nH]c2cc(C(F)F)ccc12` [Example I-52, N-[6-(2,2-difluoroethoxy)-2,5-difluoropyridin-3-yl]-6-(difluoromethyl)-1H-indole-3-sulfonamide], which Kb is on record?
Its Kb is 0.00316 to 0.0316 µM.

How did the Kb turn out when `COc1nc(OCC(F)F)ccc1NS(=O)(=O)c1c[nH]c2nc(Cl)ccc12` [Example I-45, 6-chloro-N-[6-(2,2-difluoroethoxy)-2-methoxypyridin-3-yl]-1H-pyrrolo[2,3-b]pyridine-3-sulfonamide] was run?
The Kb was 0.00316 to 0.0316 µM.

These compounds were tested against T1, GPR17 (assay: Calcium mobilization functional assay (Ca2+ assay) in CHO hGPR17 cells). Details: inhibition of 50 nM MDL29,951 (GPR17 agonist), activity range, read-out: Ca^2+ assay pIC50 (converted).
Type: cell-based
Set-up: host or cells: Flp-In T-REx CHO cells, expression induced with doxycycline
Experimental: as §1
GPR17 is a G-protein coupled receptor. GPR17 activation triggers Gq-type G-protein signaling resulting in endoplasmic reticulum calcium (Ca^2+) stores release in cytosol which can be measured using Calcium 5 dye, a fluorescent indicator dye of cytosolic Ca^2+ levels. The compounds of the present invention were assessed either in the Ca^2+ assay or in the GPR17 cAMP assay, described further below.
CHO hGPR17 were defrosted and seeded at a density of 20,000 cells per well into black 384-well plates with clear bottom. Cells were incubated overnight at 37° C. in a humidified atmosphere of 5% CO2. Sixteen to twenty hours after seeding, CHO hGPR17 were loaded for 60 min with Calcium 5 dye, a cytosolic Ca^2+ indicator fluorescent dye, according to manufacturer's instructions. Fluorescent signal relative to cytosolic Ca^2+ concentration was recorded over time at room temperature in FLIPR Tetra reader. Cells were first incubated for 30 minutes at room temperature in HBSS Hepes buffer pH 7.4 containing increasing concentrations of test compounds (typically 10^−11 M to 10^−6M). Then, 50 nM MDL29,951, a GPR17 agonist, was added to the cells. Inhibitory effects of varying concentrations test compounds were measured and resulting pIC50S were determined. All incubations were performed in duplicate and results were compared to a concentration response curve of GPR17 agonist and antagonist reference compounds. Analysis and curve fitting were performed in ActivityBase XE using XLfit 4-parameter logistic equation y=A+((B−A)/(1+((C/x)^D))) where A, B, C and D stand for minimum y, maximum y, IC50 and slope, respectively.
The activities of the Example compounds tested are depicted in the table 6 in Section B-IIB below. The activity ranges A, B and C refer to pIC50 values in the Ca^2+ assay as follows: “A”: pIC50 6.5≤x<7.5, “B”: pIC50 7.5≤x<8.5, “C”: 8.5≤pIC50

`COc1ccc(NS(=O)(=O)c2c[nH]c3cc(Cl)ccc23)cn1` [Example I-15, 6-chloro-N-(6-methoxypyridin-3-yl)-1H-indole-3-sulfonamide] was tested. Which IC50 did it give?
The IC50 was 0.0316 to 0.316 µM.

How did the IC50 turn out when `O=S(=O)(Nc1cnc(Cl)c(F)c1)c1c[nH]c2cc(Cl)ccc12` [Example I-23, 6-chloro-N-(6-chloro-5-fluoropyridin-3-yl)-1H-indole-3-sulfonamide] was run?
The IC50 was 0.0316 to 0.316 µM.

With `O=S(=O)(Nc1cc(F)cnc1F)c1c[nH]c2cc(Cl)ccc12` [Example I-1, 6-chloro-N-(2,5-difluoropyridin-3-yl)-1H-indole-3-sulfonamide] as the compound, how does the IC50 read?
The IC50 was 0.0316 to 0.316 µM.

For `COc1ncc(Cl)cc1NS(=O)(=O)c1c[nH]c2cc(Cl)ccc12` [Example I-17, 6-chloro-N-(5-chloro-2-methoxypyridin-3-yl)-1H-indole-3-sulfonamide], which IC50 is on record?
The IC50 was 0.0316 to 0.316 µM.

How did the IC50 turn out when `O=S(=O)(Nc1ccc(Cl)nc1)c1c[nH]c2cc(Cl)ccc12` [Example I-24, 6-chloro-N-(6-chloropyridin-3-yl)-1H-indole-3-sulfonamide] was run?
Its IC50 is 0.0316 to 0.316 µM.

With `COc1cc(NS(=O)(=O)c2c[nH]c3cc(Cl)ccc23)c(F)nc1Cl` [Example I-4, 6-chloro-N-(6-chloro-2-fluoro-5-methoxypyridin-3-yl)-1H-indole-3-sulfonamide] as the compound, how does the IC50 read?
The IC50 was 0.0316 to 0.316 µM.

How did the IC50 turn out when `Cc1nc(F)c(NS(=O)(=O)c2c[nH]c3cc(Cl)ccc23)cc1F` [Example I-7, 6-chloro-N-(2,5-difluoro-6-methylpyridin-3-yl)-1H-indole-3-sulfonamide] was run?
The IC50 was 0.00316 to 0.0316 µM.

Which IC50 does the source give for `COc1nc(Cl)c(F)cc1NS(=O)(=O)c1c[nH]c2cc(Cl)ccc12` [Example I-3, 6-chloro-N-(6-chloro-5-fluoro-2-methoxypyridin-3-yl)-1H-indole-3-sulfonamide] here?
The IC50 was 0.00316 to 0.0316 µM.

Which IC50 does the source give for `COc1ccc(NS(=O)(=O)c2c[nH]c3cc(Cl)ccc23)c(Cl)n1` [Example I-8, 6-chloro-N-(2-chloro-6-methoxypyridin-3-yl)-1H-indole-3-sulfonamide] here?
Its IC50 is 0.0316 to 0.316 µM.

With `COc1ccc(NS(=O)(=O)c2c[nH]c3c2ccc2ccccc23)c(OC)n1` [Example I-70, N-(2,6-dimethoxypyridin-3-yl)-1H-benzo[g]indole-3-sulfonamide] as the compound, how does the IC50 read?
Its IC50 is 0.0316 to 0.316 µM.

With `N#Cc1ccc(NS(=O)(=O)c2c[nH]c3cc(Cl)ccc23)cn1` [Example I-19, 6-chloro-N-(6-cyanopyridin-3-yl)-1H-indole-3-sulfonamide] as the compound, how does the IC50 read?
Its IC50 is 0.0316 to 0.316 µM.

Which IC50 does the source give for `O=S(=O)(Nc1ccc(Br)nc1)c1c[nH]c2cc(Cl)ccc12` [Example I-20, N-(6-bromopyridin-3-yl)-6-chloro-1H-indole-3-sulfonamide] here?
The IC50 was 0.0316 to 0.316 µM.

— patent publication US11939319B2, “Pyridinyl and pyrazinyl-(asa)indolsulfonamides” (UCB Pharma GmbH, priority 2018, dated 2024)
